≈ marks a conversion by molar mass, not a printed value. Where “and” joins values, the source holds several entries; their conditions need not be identical. Equal entries are not always repeated. Where two headings read alike, the source gives them in different places.
Key:
C. albicans SC5314 = experiment: In vitro growth assay (MIC) in YNB broth with glucose or acetate; assay type: cell-based, Candida albicans; conditions: 3 days at 28 °C; for MIC: Candida albicans, 72 h
Procedure: The microbial strategy for survival during growth in a nutrient-free environment entails a metabolic shift in the carbon source to C2 substrates generated by β-oxidation of fatty acids. […] To investigate whether ICL inhibitors affected C2 substrate use, we cultured C. albicans strain SC5314 in YNB broth containing either 2% glucose or 2% potassium acetate as the sole carbon source, and inhibition was evaluated based on the MIC.
C. albicans strains were grown in YNB ([…] yeast nitrogen base) broth containing 2% glucose at 28 °C for 24 h, harvested by centrifugation, and washed twice with sterile distilled water. Each test compound was dissolved in DMSO and diluted with YNB containing 2% glucose or 2% potassium acetate to prepare serial twofold dilutions in the range 100–0.1 μg/mL. The final DMSO concentration was maintained at 0.5% by adding DMSO to the medium. Twenty microliters of the broth containing test fungus was added to each well of a 96-well microtiter plate (final concentration of 1 × 10^4 cells/mL). Culture plates were incubated for 3 days at 28 °C. […] Amphotericin B was used as a reference compound.

ICL from C. albicans = ICL from C. albicans (Candida albicans, UniProt Q9P8Q7); experiment: biochemical; assay type: biochemical; conditions: for type of inhibition: Lineweaver and Burk plot at IC50 or twofold IC50; for reversibility of binding to enzyme: enzyme activity recovered by dialysis within 2 h
Chain of ICL from C. albicans (Q9P8Q7 whole entry): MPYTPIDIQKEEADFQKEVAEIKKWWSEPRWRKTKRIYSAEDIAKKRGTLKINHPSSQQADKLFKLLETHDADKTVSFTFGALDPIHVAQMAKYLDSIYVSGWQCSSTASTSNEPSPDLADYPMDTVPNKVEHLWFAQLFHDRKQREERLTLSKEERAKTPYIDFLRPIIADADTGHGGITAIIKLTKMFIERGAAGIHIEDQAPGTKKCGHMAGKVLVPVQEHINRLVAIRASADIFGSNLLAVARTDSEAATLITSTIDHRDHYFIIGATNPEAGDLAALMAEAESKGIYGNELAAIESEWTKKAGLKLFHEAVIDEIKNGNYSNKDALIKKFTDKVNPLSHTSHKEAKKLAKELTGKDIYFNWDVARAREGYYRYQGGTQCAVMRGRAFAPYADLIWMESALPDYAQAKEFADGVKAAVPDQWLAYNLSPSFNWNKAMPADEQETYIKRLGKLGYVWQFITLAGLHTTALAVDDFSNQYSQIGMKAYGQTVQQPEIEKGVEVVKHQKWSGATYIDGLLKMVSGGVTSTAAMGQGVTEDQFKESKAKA
Procedure: To determine the type of inhibition, kinetic studies were performed with compounds 1, 2 and 4 at IC50 or twofold IC50 based on Lineweaver and Burk plot (Figure 3). Inhibitor constants were obtained by Dixon plot.
Figure 3 Lineweaver-Burk plot of ICL inhibition by compounds 1, 2 and 4. [S], substrate concentration [mM]; V, reaction velocity (∆absorbance unit/min). Each data point represents the mean of three experiments.

[1] = molecular target: T1, recombinant ICL from C. albicans ATCC 10231 (Candida albicans, UniProt Q9P8Q7); experiment: biochemical
T1 construct: thioredoxin (fusion partner of the pBAD/Thio-TOPO vector); made in house; host or cells: Escherichia coli TOP10
T1 sequence (Q9P8Q7 whole entry, the tested form may be a part): as the sequence (Q9P8Q7 whole entry) above
Procedure: Compound 1−9 were obtained as mentioned previously (Figure 1). The expression and purification of recombinant ICL from the genomic DNA of C. albicans (ATCC 10231) were carried out by a method described previously. The inhibitory effects of the isolated compounds on ICL were evaluated according to a procedure documented previously. The basic concept of this method was to measure spectrophotometrically the formation of glyoxylate phenylhydrazone in the presence of phenylhydrazine and isocitrate. The effect of the inhibitor on ICL was calculated as a percentage relative to dimethyl sulfoxide (DMSO)-treated control. Mixture of ICL, substrate, phenyhydrazine was incubated for 30 min with various concentrations of suvanine sesterterpenes (100 to 0.1 μg/mL). The formation of glyoxylate phenylhydrazone was followed spectrophotometrically at 324 nm. Data were scaled to internal controls, and a four- parameter logistic model (GraphPad ver. 5.0, Prism) was used to fit the measured data and determine IC50 (inhibitory concentration for 50% activity) values.
The preparation of recombinant ICL protein from the genomic DNA of C. albicans ATCC 10231 was carried out using a method described previously. Briefly, ICL was PCR-amplified using two synthetic primers: 5′-[…]-3′ (forward) and 5′-[…]-3′ (reverse). The PCR product was cloned into the pBAD/Thio-TOPO vector (Invitrogen, Carlsbad, CA, USA) and transformed into Escherichia coli TOP10 (Invitrogen).
The effect of isolated compounds on ICL was evaluated according to a procedure documented previously. A 1-mL aliquot of the reaction mixture contained 20 mM sodium phosphate buffer (pH 7.0), 1.27 mM threo-DL (+) isocitrate, 3.75 mM MgCl2, 4.1 mM phenylhydrazine and 2.5 μg/mL purified ICL. The reaction was performed at 37 °C for 30 min with and without a prescribed concentration of the inhibitor dissolved in DMSO (final concentration, 0.5%). The formation of glyoxylate phenylhydrazone was followed spectrophotometrically at 324 nm. The effect of the inhibitor on ICL was calculated as a percentage relative to the solvent-treated control. A 12-point, twofold serial dilution dose–response assay was performed in triplicate. The resultant dose–response concentration range was 100 to 0.1 μg/mL of inhibitor in a 1-mL final reaction volume. Data were scaled to internal controls, and a four-parameter logistic model (GraphPad ver. 5.0, Prism) was used to fit the measured data and determine the IC50 values. The ICL inhibitor 3-nitropropionate was used as a positive control. Protein concentration was determined by the method of Bradford using the Bio-Rad protein assay kit (Bio-Rad, Hercules, CA, USA) and bovine serum albumin as a standard.

[2] = tested on: ICL mRNA expression in C. albicans; experiment: Semi-quantitative RT-PCR analysis of ICL mRNA expression; assay type: cell-based, Candida albicans; conditions: acetate medium
[3] = tested on: C. albicans strain SC5314 (wild-type), MRC10 (Δicl), and MRC11 (Δicl + ICL); experiment: Growth phenotype of wild-type and ICL deletion mutants on YNB agar plates; assay type: cell-based, Candida albicans; conditions: 12.5 μg/mL, 3 days at 28 °C
[4] = YNB broth with 2% glucose, read-out: MIC, Glucose
[5] = YNB broth with 2% potassium acetate, read-out: MIC, Acetate
[6] = YNB broth with 2% potassium acetate
[7] = recombinant ICL from C. albicans ATCC 10231, 37 °C, 30 min, mean ± SD (n = 3), read-out: ICL IC50
[8] = recombinant ICL from C. albicans ATCC 10231, value in parentheses
[9] = recombinant ICL from C. albicans ATCC 10231, value in parentheses, read-out: ICL IC50

| Structure (SMILES) | MIC (C. albicans SC5314; [4]) [µg/mL] | MIC (C. albicans SC5314; [5]) [µg/mL] | IC50 ([1]; ICL IC50) | IC50 [1, 7] [µM] | further results |
| --- | --- | --- | --- | --- | --- |
| C[C@@H]1[C@H](O)[C@@H](C)/C=C/C=C/C=C/C=C/C=C/C=C/C=C/[C@H](O[C@@H]2O[C@H](C)[C@@H](O)[C@H](N)[C@@H]2O)C[C@@H]2O[C@](O)(C[C@@H](O)C[C@@H](O)[C@H](O)CC[C@@H](O)C[C@@H](O)CC(=O)O[C@H]1C)C[C@H](O)[C@H]2C(=O)O [Amph B, Amphotericin B, reference compound] | 1.56 (≈ 1.69 µM) | 0.39 (≈ 0.422 µM) |  |  |  |
| CC1(C)CCC[C@]2(C)[C@H]3CC/C(=C\OS(=O)(=O)[O-])[C@H](CCc4ccoc4)[C@@]3(C)CC[C@@H]12.C[N+](C)=C(N)N [Compound 1, suvanine salt] |  |  |  |  | type of inhibition (ICL from C. albicans): uncompetitive inhibitor; reversibility of binding to enzyme (ICL from C. albicans): reversible; Ki (ICL from C. albicans; obtained by Dixon plot, read-out: Ki (inhibitor constant)): 17.4 µM; MIC, Glucose (C. albicans SC5314; YNB broth with 2% glucose): 100 µg/mL; MIC, Acetate (C. albicans SC5314; [6]): 25 µg/mL; ICL IC50 [1]: 22.43 ± 1.49 (12.03 ± 0.80) µg/mL; IC50 ([1]; read-out: ICL IC50): 22.4 µM |
| CC1(C)CCC[C@]2(C)[C@H]3CC/C(=C\OS(=O)(=O)[O-])[C@H](CCc4ccoc4)[C@@]3(C)CC[C@@H]12.[Na+] [Compound 2, suvanine salt] | 100 | 12.5 | 6.35 µM |  | Ki (ICL from C. albicans): 14.4 µM; type of inhibition (ICL from C. albicans): mixed noncompetitive inhibitors; reversibility of binding to enzyme (ICL from C. albicans): reversible; reduction of ICL mRNA expression ([2]; 12.5 μg/mL, 4 h at 28 °C, densitometric analysis): seventeenfold; ICL transcript levels with increasing compound concentration ([2]; SC5314 and MRC11, 6.25 and 12.5 µg/mL): diminished with increasing compound 2 concentrations; MIC, Acetate (C. albicans SC5314; [6]): 12.5 µg/mL; growth on YNB agar plates containing glucose plus compound ([3]; SC5314, MRC10, MRC11, 2% glucose): grew normally; growth on YNB agar plates containing acetate plus compound ([3]; all tested strains, 2% sodium acetate): inhibited markedly |
| O=C(O)CC[N+](=O)[O-] [Compound 3-NP, 3-Nitropropinate, reference compound] |  |  |  | 17.3 ± 1.04 | MIC, Glucose (C. albicans SC5314; YNB broth with 2% glucose): >100 µg/mL; MIC, Acetate (C. albicans SC5314; [6]): >100 µg/mL; ICL IC50 [1, 8]: 2.06 ± 0.12 µg/mL |
| CC1(C)CCC[C@]2(C)[C@H]3CC/C(=C\OS(=O)(=O)[O-])[C@H](CCC4=CC(=O)O[C@@H]4O)[C@@]3(C)CC[C@@H]12.[Na+] [Compound 3] | > 100 | > 100 |  | 56.2 ± 7.1 | ICL IC50 [1, 8]: 28.33 ± 3.58 µg/mL |
| CC1(C)CCC[C@]2(C)[C@H]3CC/C(=C\OS(=O)(=O)[O-])[C@H](CCC4=CC(=O)OC4)[C@@]3(C)CC[C@@H]12.[Na+] [Compound 4] | > 100 | 100 | 26.3 µM and 26.2 µM |  | Ki (ICL from C. albicans): 62.6 µM; type of inhibition (ICL from C. albicans): mixed noncompetitive inhibitors; reversibility of binding to enzyme (ICL from C. albicans): reversible |
| CO[C@@H]1C=C(CC[C@H]2/C(=C/OS(=O)(=O)[O-])CC[C@H]3[C@]2(C)CC[C@H]2C(C)(C)CCC[C@]32C)C(=O)O1.[Na+] [Compound 5] | > 100 | > 100 |  | 50.2 ± 6.27 | IC50 [1, 9]: 50.2 ± 3.25 µM |
| CO[C@H]1C=C(CC[C@H]2/C(=C/OS(=O)(=O)[O-])CC[C@H]3[C@]2(C)CC[C@H]2C(C)(C)CCC[C@]32C)C(=O)O1.[Na+] [Compound 6] | > 100 | 100 |  | 96.2 ± 1.54 | IC50 [1, 9]: 96.08 ± 0.799 µM |
| CO[C@H]1C=C(CC[C@H]2/C(=C/OS(=O)(=O)[O-])CC[C@H]3[C@]2(C)CC[C@H]2C(C)(C)CCC[C@]32C)[C@@H](OC)O1.[Na+] [Compound 7] | > 100 | > 100 | 59.1 µM and 51.1 µM |  |  |
| CO[C@@H]1O[C@H](OC)[C@](O)(CC[C@H]2/C(=C/OS(=O)(=O)O)CC[C@H]3[C@]2(C)CC[C@H]2C(C)(C)CCC[C@]32C)[C@H]1O [Compound 8] | > 100 | > 100 | 67.6 µM |  |  |
| CC1(C)CCC[C@]2(C)[C@H]3CC/C(=C\OS(=O)(=O)[O-])[C@H](CCC4=CCNC4=O)[C@@]3(C)CC[C@@H]12.[Na+] [Compound 9] | > 100 | > 100 |  | 59.2 ± 1.11 | IC50 [1, 9]: 59.1 ± 0.54 µM |
| C=C(CC(=O)O)C(=O)O [Itaconate, itaconate, reference compound] | > 100 | > 100 |  |  |  |

Reference: PMC4210890, “Suvanine Sesterterpenes from a Tropical Sponge Coscinoderma sp. Inhibit Isocitrate Lyase in the Glyoxylate Cycle” (Marine Drugs, 2014)
